Data on one molecule can be found in patent US11028051B2, “Tetrahydroquinoline-based bromodomain inhibitors” (St. Jude Children's Research Hospital, priority 2016, dated 2021).

The Kd is a measure of binding affinity in units of concentration. A word on the EC50: it is the midpoint of the concentration-response curve.

The target in assay [1] is T1, BRD2-BD1 (Homo sapiens (Human), UniProt P25440). As to the kind of experiment: isothermal titration calorimetry analysis of binding. The following applies: ITC, BRD2(1); read-out: KD (ITC). On the procedure: (§1) b. Isothermal Titration Calorimetry Analysis of Binding to Brd2-BD1 and Brd2-BD2
(§2) Binding of compounds to BRD2 was monitored using an ITC200 (Microcal, Piscataway, N.J.). Either Brd2.1 (74-194) or Brd2.2 (348-455) was dialyzed overnight into a solution containing 50 mM HEPES, pH 7.0 and 150 mM NaCl at 15° C. Enzyme concentrations were determined after dialysis by absorbance at 280 nm using a molar extinction coefficient (ε280) of 25,565 M^−1 cm^−1 (2.1) or 16,055 M^−1 cm^−1 (2.2). Enzyme was diluted in dialysis buffer and 39.6 μL was loaded into the syringe. Compounds were dissolved in the same dialysis buffer and loaded in the cell to a volume of 204 μL. Injections were carried out by serial injections of enzyme; first, 1 injection of 1 μL, followed by 19 incremental injections of 2 μL, at 120 second intervals. Data from the first injection was excluded, due to pre-equilibration mixing between the contents of cell and syringe at the syringe tip. Peak areas were integrated, normalized, and then fitted by non-linear regression using the independent sites model in Origin™ (version 2.3.6, Microcal, Piscataway, N.J.).
On the technique in general: ITC needs no label: the signal is the heat of the interaction.
Target sequence in this assay (P25440 74-194): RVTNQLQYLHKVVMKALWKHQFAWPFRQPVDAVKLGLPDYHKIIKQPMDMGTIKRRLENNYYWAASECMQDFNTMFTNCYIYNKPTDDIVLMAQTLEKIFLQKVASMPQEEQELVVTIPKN

Assay [2] concerns the target T2, BRD2-BD2 (Homo sapiens (Human), UniProt P25440). Described as above. As to conditions: ITC, BRD2(2); read-out: KD (ITC). On the procedure: as §1, §2
Target sequence in this assay (P25440 348-455): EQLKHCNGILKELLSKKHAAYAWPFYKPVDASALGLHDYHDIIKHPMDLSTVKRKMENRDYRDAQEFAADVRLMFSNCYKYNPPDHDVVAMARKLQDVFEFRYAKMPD
The target of assay [3] is T1, BRD2-BD1. Kind of assay: surface plasmon resonance analysis of binding. As to conditions: SPR, BRD2(1) (printed MRD2(1)). As for the experimental part:
(§3) a. Surface Plasmon Resonance (Biacore) Analysis of Binding to Brd2-BD1 and Brd2-BD2
(§4) SPR experiments were conducted at 15° C. using a SensiQ Pioneer optical biosensor (SensiQ Technologies). Poly-His tagged BRD2 constructs were immobilized on polycarboxylate-coated gold chips preimmobilized with nitrilotriacetic acid (His-Cap chips; SensiQ Technologies) by capture-coupling, a hybrid method of capture and amine coupling chemistry (Ref. A). The His-Cap chip was preconditioned and charged with Ni^2+ in equilibration buffer (10 mM HEPES pH 7.4, 150 mM NaCl, 50 μM EDTA, 0.005% Tween20) at a flow rate of 10 μL/min. The chip was washed with three 60 s injections of regeneration buffer (10 mM HEPES pH 8.3, 150 mM NaCl, 350 mM EDTA, 0.05% Tween20) and one 60 s injection of equilibration buffer and was charged with a 60 s injection of 500 mM NiCl2 in equilibration buffer, which added ˜55 RU of Ni^2+ per channel. […]
(§5) A series of buffer-only (blank) injections was included throughout the experiment to account for instrumental noise. The data were processed, double-referenced, solvent corrected and analyzed using the software package Qdat (version 2.5.3.5, SensiQ Technologies) (Ref B). The kinetic rate constants were determined by globally fitting the data to a 1:1 interaction model. Equilibrium dissociation constants (KD) were calculated as the quotient kd/ka.
Target sequence in this assay (P25440 74-180): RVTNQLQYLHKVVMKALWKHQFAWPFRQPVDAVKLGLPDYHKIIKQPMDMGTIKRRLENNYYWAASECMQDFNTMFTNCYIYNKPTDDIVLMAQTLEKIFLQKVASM

Assay [4] addresses T2, BRD2-BD2. Kind of assay: surface plasmon resonance analysis of binding. The following applies: SPR, BRD2(2). As for the experimental part: as §3, §4, §5
In general terms: SPR reads the build-up and loss of mass on a sensor chip optically.
Target sequence in this assay (P25440 344-453): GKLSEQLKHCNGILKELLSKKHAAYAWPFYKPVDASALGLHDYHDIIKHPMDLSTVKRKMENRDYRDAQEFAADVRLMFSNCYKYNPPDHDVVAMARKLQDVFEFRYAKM

Assay [5] concerns HDMB03 cells. As to the kind of experiment: cell viability, CellTiter-Glo. The assay is classed as cell-based, human. As to conditions: Homo sapiens, read-out: EC50 (μM) HDMB03. A digest of the protocol:
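Medulloblastoma cells grown as neurospheres in supplemented neurobasal medium and treated for 7 days; viability read by CellTiter-Glo luminescence. Log10-transformed signal normalized to negative and positive controls; median percent inhibition of triplicates fitted with a four-parameter log-logistic model.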
For orientation: In ATP-based viability assays light output follows the ATP content of the culture.

Assay [6] deals with Loucy. As to the kind of experiment: anti-proliferative activity. As to conditions: Table 5. The assay is classed as cell-based. As for the experimental part:
(§6) After 7 days of treatment, an equal volume of CellTiter-Glo reagent (G7572, Promega) was added and the luminescence signal was measured using an automated Envision plate reader (Perkin-Elmer). Luminescence data were normalized by log10 transformation prior to calculating the percent inhibition using the following equation:
(§7) 100*(negative control mean −compound value)/(negative control mean −positive control mean).

Assay [7] relates to MV-4-11. As to the kind of experiment: anti-proliferative activity. The assay is classed as cell-based. The following applies: Homo sapiens, MV4-11; Table 7. As for the experimental part:
as §6, §7

Assay [8] concerns NALM-16. Kind of assay: anti-proliferative activity. In kind it is cell-based. The following applies: NALM16; Table 5. On the procedure: as §6, §7
Assay [9] has as its system SEM cells. Kind of assay: anti-proliferative activity. The assay is classed as cell-based. As to conditions: Table 5. As for the experimental part:
as §6, §7

The target of assay [10] is BRD3(1) (Homo sapiens (Human), UniProt Q15059). Kind of assay: BROMOscan KD determination. As to conditions: Table 10. The assay is classed as binding. The source says: (§8) DiscoverX® can screen compounds against all ˜42 bromodomains (a service called BROMOscan) and perform follow-up KD determination. This service is considered the industrial standard for bromodomain inhibitor comparisons.

Assay [11] deals with BRD3(2) (Homo sapiens (Human), UniProt Q15059). As to the kind of experiment: BROMOscan KD determination. In kind it is binding.
Text: as §8

Assay [12] deals with BRD4(1) (Homo sapiens (Human), UniProt O60885). As to the kind of experiment: BROMOscan KD determination. The assay is classed as binding. The following applies: Table 10.
Text: as §8

Assay [13] addresses BRD4(2) (Homo sapiens (Human), UniProt O60885). Kind of assay: BROMOscan KD determination. In kind it is binding.
Text: as §8

Read-outs that look alike come from different tables or passages of the source. Where only a bound is given, the exact number is not on record here.

BRD3(2), sequence (Q15059 306-415): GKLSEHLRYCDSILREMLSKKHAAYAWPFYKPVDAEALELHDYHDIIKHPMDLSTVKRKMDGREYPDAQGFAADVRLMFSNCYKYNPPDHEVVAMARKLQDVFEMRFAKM
BRD3(1), sequence (Q15059 34-140): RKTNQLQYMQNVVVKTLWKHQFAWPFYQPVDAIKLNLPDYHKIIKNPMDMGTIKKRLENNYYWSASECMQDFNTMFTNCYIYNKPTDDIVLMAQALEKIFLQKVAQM

Consider `COC(=O)c1ccc(N[C@@H]2C[C@H](C)N(C(C)=O)c3ccc(-c4cccc(NC(C)=O)c4)cc32)cc1` [compound 4], for which the Kd in assay [1] is 0.025 µM; in assay [2], < 0.001 µM; in assay [3] it was 0.132 µM; in assay [4], 0.013 µM; in assay [10] it was 0.00072 µM; in [11] (BROMOscan, Table 10) it was 0.00039 µM. Also, the Kd in assay [12] came to 0.027 µM; in [13] (BROMOscan, Table 10), 0.00042 µM. The EC50 in assay [5] (HD-MB03, Table 5) stood at 0.31 µM; in [5] (HD-MB03, Table 7), 0.75 µM; in [5] (HD-MB03, Table 9, cancer cell proliferation inhibition), 0.75 µM; in assay [6], 0.39 µM; in assay [7] it was 0.016 µM; in assay [8] it was 0.35 µM. In assay [9], this molecule displayed an EC50 of 0.02 µM. The “3(1)/3(2)” value in assay [11] (BROMOscan KD ratio) was 1.8. The “4(1)/4(2)” value in assay [13] (BROMOscan KD ratio) worked out at 64.3.
